Measurements taken from US11666608B2 (priority 2020, dated 2023).

System: neutrophils isolated from peripheral blood
Experiment: Neutrophil activation by E. coli EVs, neutrophil elastase secretion (ELISA)
Format: cell-based
Conditions: human neutrophils treated with E. coli EVs and test substance 24 hours, FIG. 8
Protocol: Specifically, 10 mL of blood was collected in a tube containing an ACD solution, the blood was carefully added over 20 mL of Lymphoprep and centrifuged. After centrifugation, a red blood layer was collected and mixed with 12 mL of dextran, followed by standing at room temperature for 45 minutes. After layer separation, 40 mL of 1×HBSS was added to the supernatant and centrifuged again, and red blood cells were removed with autoclaved Millipore water, and then neutrophils were isolated using a neutrophil isolation kit (MACS). […] As a positive control drug, dexamethasone (Dex) was treated.

Question: For `C[C@@H]1C[C@H]2[C@@H]3CCC4=CC(=O)C=C[C@]4(C)[C@@]3(F)[C@@H](O)C[C@]2(C)[C@@]1(O)C(=O)CO` [dexamethasone], which “secretion of NE (neutrophil elastase), neutrophil activation indicator” value is on record?
Answer: did not inhibit
